{
  "source": "patent EP1743889A1",
  "about": "“Sustituted pyrazoline compounds, having predetermined stereochemistry, for reducing triglycerides in blood” (Laboratorios del Dr. Esteve S.A., priority 2005, dated 2007)",
  "tested_on": "triglycerides in blood plasma",
  "assay": "In-vivo testing for regulation of triglycerides in blood plasma",
  "set-up": "species or system male mice B6 Lep ob/ob",
  "details": "obese mice fed with high fat diet; 30 mg/kg/day, p.o., 14 days treatment",
  "from_the_text": "This effect is probed in obese mice fed with high fat diet. In the following paragraphs the method of this study is described.\nThe study is done using six weeks old male mice B6 Lep ob/ob, obtained from Charles River (France). Mice are divided in 3 groups: I (control), II (vehicle), III (example 0).\nThe animals of the group I receive the standard diet (D-12450B, Research Diets, NJ, USA).\nThe animals of the groups II and III are fed with a High Fat Diet (D-12492, Research Diets, NJ, USA), in both cases for 7 weeks (References 1 and 2).\nThe animals of the groups III are fed with a High Fat Diet (D-12492, Research Diets, NJ, USA), in both cases for 7 weeks (References 1 and 2).\nAt the end of the feeding period of 7 weeks, the treatment period (14 days) is started: Group II mice receive the vehicle (10 ml/kg/day, po, of the aqueous solution of acacia gum, 5% W/V). Group III is administered with 30 mg/kg/day, p.o., of the inventive compound (R)-5-(4-chlorophenyl)-1-(2,4-dichlorophenyl)-4,5-dihydro-pyrazole-3-carboxylic acid according to Example 0. […] The three groups of mice have the same diet than in the previous period.\nAt the end of the 14 days period of treatment, the blood levels of triglicerides of the animals are determined.\nThe analysis of the whole blood samples is done using test strips \"Lipid panel\" and the photometric Analyzer Cardio-Check Test System, from PA Instruments Polymer […]",
  "data": [
    {"compound": "O=C(O)C1=NN(c2ccc(Cl)cc2Cl)[C@@H](c2ccc(Cl)cc2)C1", "note": "[Example 0, (R)-5-(4-chlorophenyl)-1-(2,4-dichlorophenyl)-4,5-dihydro-pyrazole-3-carboxylic acid]", "values": [
      {"measurement": "blood levels of triglicerides", "value": "inhibitor of high blood levels of triglicerides"}
    ]}
  ]
}
